Laboratory results: the NIST ThermoML archive (doi:10.1016/j.jct.2019.03.025)

Test: xn = mol fraction of the nth substance listed
Details: Liquid, Vibrating tube method

Cc1cccc(C)c1 [1,3-dimethylbenzene] + CCCCCCCCCC
mass density [kg/m3]
Details | x2 = 0 | x2 = 0.2005 | x2 = 0.3999 | x2 = 0.603 | x2 = 0.7998
333.15 K, 100 kPa | 829 | 791.1 | 760.5 | 735.9 | 716.6
333.15 K, 1000 kPa | 829.8 | 791.9 | 761.3 | 736.7 | 717.4
333.15 K, 3000 kPa | 831.7 | 793.8 | 763.3 | 738.7 | 719.4
333.15 K, 5000 kPa | 833.4 | 795.6 | 765.1 | 740.5 | 721.2
333.15 K, 10000 kPa | 837.6 | 799.9 | 769.5 | 744.9 | 725.7
333.15 K, 15000 kPa | 841.6 | 804.1 | 773.7 | 749.2 | 729.9
333.15 K, 20000 kPa | 845.6 | 808.1 | 777.7 | 753.2 | 733.9
333.15 K, 25000 kPa | 849.3 | 811.9 | 781.4 | 756.9 | 737.7
333.15 K, 30000 kPa | 852.8 | 815.4 | 785 | 760.5 | 741.3
333.15 K, 35000 kPa | 856.2 | 818.9 | 788.4 | 763.9 | 744.7
333.15 K, 40000 kPa | 859.7 | 822.4 | 792 | 767.4 | 748.2
333.15 K, 50000 kPa | 866 | 828.7 | 798.2 | 773.7 | 754.4
333.15 K, 60000 kPa | 871.9 | 834.6 | 804.2 | 779.6 | 760.4
343.15 K, 100 kPa | 820 | 782.3 | 752 | 727.6 | 708.4
343.15 K, 1000 kPa | 821.1 | 783.5 | 753.1 | 728.7 | 709.4
343.15 K, 3000 kPa | 823 | 785.4 | 755.1 | 730.7 | 711.5
343.15 K, 5000 kPa | 825 | 787.5 | 757.2 | 732.8 | 713.6
343.15 K, 10000 kPa | 829.4 | 792 | 761.8 | 737.5 | 718.3
343.15 K, 15000 kPa | 833.6 | 796.4 | 766.1 | 741.8 | 722.6
343.15 K, 20000 kPa | 837.9 | 800.7 | 770.5 | 746.2 | 727
343.15 K, 25000 kPa | 841.7 | 804.6 | 774.3 | 750 | 730.9
343.15 K, 30000 kPa | 845.5 | 808.4 | 778.2 | 753.9 | 734.7
343.15 K, 35000 kPa | 849.2 | 812.1 | 781.9 | 757.6 | 738.4
343.15 K, 40000 kPa | 852.5 | 815.5 | 785.3 | 761 | 741.8
343.15 K, 50000 kPa | 859.1 | 822.1 | 791.9 | 767.6 | 748.5
343.15 K, 60000 kPa | 865 | 828.1 | 797.8 | 773.4 | 754.2
353.15 K, 100 kPa | 811.3 | 773.9 | 743.8 | 719.6 | 700.5
353.15 K, 1000 kPa | 812.2 | 774.8 | 744.7 | 720.5 | 701.4
353.15 K, 3000 kPa | 814.3 | 777.1 | 747 | 722.8 | 703.7
353.15 K, 5000 kPa | 816.2 | 779.1 | 749 | 724.8 | 705.8
353.15 K, 10000 kPa | 821 | 784 | 753.9 | 729.8 | 710.8
353.15 K, 15000 kPa | 825.7 | 788.7 | 758.7 | 734.6 | 715.6
353.15 K, 20000 kPa | 829.8 | 793 | 763 | 739 | 720
353.15 K, 25000 kPa | 834 | 797.2 | 767.2 | 743.1 | 724.1
353.15 K, 30000 kPa | 838 | 801.2 | 771.2 | 747.1 | 728.1
353.15 K, 35000 kPa | 841.7 | 805 | 775 | 750.9 | 731.9
353.15 K, 40000 kPa | 845.3 | 808.6 | 778.6 | 754.5 | 735.4
353.15 K, 50000 kPa | 852.1 | 815.4 | 785.4 | 761.3 | 742.2
353.15 K, 60000 kPa | 858.5 | 821.8 | 791.8 | 767.6 | 748.5
363.15 K, 100 kPa | 802.2 | 765.1 | 735.2 | 711.3 | 692.3
363.15 K, 1000 kPa | 803.3 | 766.2 | 736.4 | 712.5 | 693.5
363.15 K, 3000 kPa | 805.5 | 768.6 | 738.8 | 714.9 | 695.9
363.15 K, 5000 kPa | 807.6 | 770.8 | 741 | 717.1 | 698.2
363.15 K, 10000 kPa | 812.4 | 775.7 | 745.9 | 722 | 703
363.15 K, 15000 kPa | 817.6 | 781 | 751.2 | 727.4 | 708.5
363.15 K, 20000 kPa | 821.8 | 785.3 | 755.6 | 731.7 | 712.8
363.15 K, 25000 kPa | 826 | 789.5 | 759.8 | 735.9 | 717
363.15 K, 30000 kPa | 830.2 | 793.8 | 764.1 | 740.2 | 721.4
363.15 K, 35000 kPa | 834.2 | 797.8 | 768.1 | 744.3 | 725.4
363.15 K, 40000 kPa | 838.1 | 801.7 | 772 | 748.2 | 729.3
363.15 K, 50000 kPa | 845.2 | 808.8 | 779.1 | 755.2 | 736.3
363.15 K, 60000 kPa | 852 | 815.6 | 785.8 | 761.8 | 742.9
